From patent publication US9127001B2, “Substituted 4,5,6,7-tetrahydro-1H-pyrazolo[4,3-c]pyridines, their use as medicament, and pharmaceutical preparations comprising them” (Sanofi, priority 2011, dated 2015)

The compounds below were run against Human TASK-1 channels (Homo sapiens (Human), UniProt O14649) (assay: Activity on the TASK-1 channel in Xenopus oocytes (two-microelectrode voltage clamp)). Settings: not given.
Format: cell-based
Protocol: Human TASK-1 channels were expressed in Xenopus oocytes. For this purpose, oocytes were isolated from Xenopus laevis and defoliculated. Subsequently, TASK-1-encoding RNA synthesized in vitro was injected into oocytes. […] Data were acquired and analyzed using a TEC-10cx amplifier (NPI Electronic, Tamm, Germany) connected to an ITC-16 interface (Instrutech Corp., Long Island, USA) and Pulse software (HEKA Elektronik, Lambrecht, Germany). […] Oocytes were continuously superfused with ND96 buffer containing: NaCl 96 mM, KCl 2 mM, CaCl2 1.8 mM, MgCl2 1 mM, HEPES 5 mM (pH adjusted to 7.4 with NaOH). All experiments were performed at room temperature.
Test substances were consecutively added to the bath solution at rising concentrations. […] IC50 values were obtained by fitting the data to the general dose-response equation.

Sequence of Human TASK-1 channels (O14649 whole entry): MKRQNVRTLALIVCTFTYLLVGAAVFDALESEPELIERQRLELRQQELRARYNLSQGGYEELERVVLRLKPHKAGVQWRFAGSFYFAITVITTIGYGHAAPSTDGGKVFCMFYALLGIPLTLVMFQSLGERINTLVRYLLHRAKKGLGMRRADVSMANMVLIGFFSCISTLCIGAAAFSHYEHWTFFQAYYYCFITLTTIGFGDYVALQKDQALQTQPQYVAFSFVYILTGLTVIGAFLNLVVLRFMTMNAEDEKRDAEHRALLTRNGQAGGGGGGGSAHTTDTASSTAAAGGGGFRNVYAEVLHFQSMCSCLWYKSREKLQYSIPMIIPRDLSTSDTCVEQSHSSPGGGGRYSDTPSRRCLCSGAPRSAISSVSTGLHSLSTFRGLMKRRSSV

Row | inhibition at 5 µM | Compound
1 | 58% | CC(c1ccc(F)cc1)n1nc(-c2ccc(F)cc2)c2c1CCN(C(=O)NC(C)(C)C)C2 (single isomer, unassigned) [Example 11f, 3-(4-Fluoro-phenyl)-1-[1-(4-fluoro-phenyl)-ethyl]-1,4,6,7-tetrahydro-pyrazolo[4,3-c]pyridine-5-carboxylic acid tert-butylamide]
2 | 76% | CC(=O)N1CCc2c(c(-c3ncccc3C)nn2Cc2ccc(F)cc2F)C1 [Example 6ab, 1-[1-(2,4-Difluoro-benzyl)-3-(3-methyl-pyridin-2-yl)-1,4,6,7-tetrahydro-pyrazolo[4,3-c]pyridin-5-yl]-ethanone]
3 | 80% | COc1ccnc(-c2nn(Cc3ccc(F)cc3F)c3c2CN(C(C)=O)CC3)c1 [Example 6ac, 1-[1-(2,4-Difluoro-benzyl)-3-(4-methoxy-pyridin-2-yl)-1,4,6,7-tetrahydro-pyrazolo[4,3-c]pyridin-5-yl]-ethanone]
4 | 86% | CC(=O)N1CCc2c(c(-c3cccc(C(F)(F)F)c3)nn2Cc2csc(C)n2)C1 [Example 6ad, 1-[1-(2-Methyl-thiazol-4-ylmethyl)-3-(3-trifluoromethyl-phenyl)-1,4,6,7-tetrahydro-pyrazolo[4,3-c]pyridin-5-yl]-ethanone]
5 | 84% | CC(=O)N1CCc2c(c(-c3cccc(C(F)(F)F)c3)nn2Cc2nccs2)C1 [Example 6ae, 1-[1-Thiazol-2-ylmethyl-3-(3-trifluoromethyl-phenyl)-1,4,6,7-tetrahydro-pyrazolo[4,3-c]pyridin-5-yl]-ethanone]
6 | 72% | CC(=O)N1CCc2c(c(-c3cccs3)nn2Cc2ccc(F)cc2F)C1 [Example 6af, 1-[1-(2,4-Difluoro-benzyl)-3-thiophen-2-yl-1,4,6,7-tetrahydro-pyrazolo[4,3-c]pyridin-5-yl]-ethanone]
7 | 75% | CC(=O)N1CCc2c(c(-c3cccc(C)c3)nn2Cc2ccc(Cl)s2)C1 [Example 6ag, 1-[1-(5-Chloro-thiophen-2-ylmethyl)-3-m-tolyl-1,4,6,7-tetrahydro-pyrazolo[4,3-c]pyridin-5-yl]-ethanone]
8 | 53% | CC(=O)N1CCc2c(c(-c3cccc(C(F)(F)F)c3)nn2Cc2ccc(Cl)s2)C1 [Example 6ah, 1-[1-(5-Chloro-thiophen-2-ylmethyl)-3-(3-trifluoromethyl-phenyl)-1,4,6,7-tetrahydro-pyrazolo[4,3-c]pyridin-5-yl]-ethanone]
9 | 79% | CC(=O)N1CCc2c(c(-c3cccc(C#N)c3)nn2Cc2ccc(Cl)s2)C1 [Example 6ai, 3-[5-Acetyl-1-(5-chloro-thiophen-2-ylmethyl)-4,5,6,7-tetrahydro-1H-pyrazolo[4,3-c]pyridin-3-yl]-benzonitrile]
10 | 76% | CC(=O)N1CCc2c(c(-c3cccc(Cl)c3)nn2Cc2ccc(Cl)s2)C1 [Example 6aj, 1-[3-(3-Chloro-phenyl)-1-(5-chloro-thiophen-2-ylmethyl)-1,4,6,7-tetrahydro-pyrazolo[4,3-c]pyridin-5-yl]-ethanone]
11 | 75% | CC(=O)N1CCc2c(c(-c3ccsc3)nn2Cc2ccc(F)cc2F)C1 [Example 6al, 1-[1-(2,4-Difluoro-benzyl)-3-thiophen-3-yl-1,4,6,7-tetrahydro-pyrazolo[4,3-c]pyridin-5-yl]-ethanone]
12 | 86% | CC(=O)N1CCc2c(c(-c3cccc(C#N)c3)nn2Cc2cc(F)ccc2F)C1 [Example 6ay, 3-[5-Acetyl-1-(2,5-difluoro-benzyl)-4,5,6,7-tetrahydro-1H-pyrazolo[4,3-c]pyridin-3-yl]-benzonitrile]
13 | 89% | CC(=O)N1CCc2c(c(-c3cccc(C)c3)nn2Cc2ccc(F)cc2F)C1 [Example 6az, 1-[1-(2,4-Difluoro-benzyl)-3-m-tolyl-1,4,6,7-tetrahydro-pyrazolo[4,3-c]pyridin-5-yl]-ethanone]
14 | 81% | CC(=O)N1CCc2c(c(-c3cccc(Cl)c3)nn2Cc2ccc(F)cc2C)C1 [Example 6ba, 1-[3-(3-Chloro-phenyl)-1-(4-fluoro-2-methyl-benzyl)-1,4,6,7-tetrahydro-pyrazolo[4,3-c]pyridin-5-yl]-ethanone]
15 | 82% | CC(=O)N1CCc2c(c(-c3cccc(C)c3)nn2Cc2ccccc2F)C1 [Example 6bb, 1-[1-(2-Fluoro-benzyl)-3-m-tolyl-1,4,6,7-tetrahydro-pyrazolo[4,3-c]pyridin-5-yl]-ethanone]

Same assay, conditions: human TASK-1 expressed in Xenopus oocytes, currents during pulses to 40 mV, room temperature

Row | IC50 | Compound
16 | 511 nM | CC(c1ccc(F)cc1)n1nc(-c2ccc(F)cc2)c2c1CCN(C(=O)N1CCOCC1)C2 (single isomer, unassigned) [Example 12b, {3-(4-Fluoro-phenyl)-1-[1-(4-fluoro-phenyl)-ethyl]-1,4,6,7-tetrahydro-pyr-azolo[4,3-c]pyridin-5-yl}-morpholin-4-yl-methanone]
17 | 734 nM | CC(c1ccc(F)cc1)n1nc(-c2ccc(F)cc2)c2c1CCN(C(=O)N1CC[C@H](O)C1)C2 (single isomer, unassigned) [Example 12c]
18 | 500 nM | CC(=O)N1CCc2c(c(-c3ccc(F)cc3)nn2C(C)c2ccc(F)cc2)C1 (single isomer, unassigned; (+)) [Example 6be, (+)-1-{3-(4-Fluoro-phenyl)-1-[1-(4-fluoro-phenyl)-ethyl]-1,4,6,7-tetrahydro-pyrazolo[4,3-c]pyridin-5-yl}-ethanone]
19 | 500 nM | CC(=O)N1CCc2c(c(-c3ccc(F)cc3)nn2C(C)c2ccc(F)cc2)C1 (single isomer, unassigned; (-)) [Example 6bf, (−)-1-{3-(4-Fluoro-phenyl)-1-[1-(4-fluoro-phenyl)-ethyl]-1,4,6,7-tetrahydro-pyrazolo[4,3-c]pyridin-5-yl}-ethanone]
20 | 270 nM | CC(=O)N1CCc2c(c(-c3ccc(Cl)s3)nn2Cc2ccc(F)cc2F)C1 [Example 6ak, 1-[3-(5-Chloro-thiophen-2-yl)-1-(2,4-difluoro-benzyl)-1,4,6,7-tetrahydro-pyrazolo[4,3-c]pyridin-5-yl]-ethanone]
21 | 114 nM | CC(=O)N1CCc2c(c(-c3cccc(C(F)(F)F)c3)nn2Cc2ccc(C#N)cc2)C1 [Example 6am, 4-[5-Acetyl-3-(3-trifluoromethyl-phenyl)-4,5,6,7-tetrahydro-pyrazolo[4,3-c]pyridin-1-ylmethyl]-benzonitrile]
22 | 187 nM | CC(=O)N1CCc2c(c(-c3cccc(C#N)c3)nn2C(C)c2ccc(F)cc2)C1 (centres unmarked) [Example 6an, 3-{5-Acetyl-1-[1-(4-fluoro-phenyl)-ethyl]-4,5,6,7-tetrahydro-1H-pyrazolo[4,3-c]pyridin-3-yl}-benzonitrile]
23 | 258 nM | CC(=O)N1CCc2c(c(-c3ccc(F)cc3)nn2C(c2ccc(F)cc2)C2CC2)C1 (centres unmarked) [Example 6ao, 1-[1-[Cyclopropyl-(4-fluoro-phenyl)-methyl]-3-(4-fluoro-phenyl)-1,4,6,7-tetrahydro-pyrazolo[4,3-c]pyridin-5-yl]-ethanone]
24 | 285 nM | CC(=O)N1CCc2c(c(-c3cccc(OC(F)(F)F)c3)nn2Cc2ccc(F)cc2F)C1 [Example 6ap, 1-[1-(2,4-Difluoro-benzyl)-3-(3-trifluoromethoxy-phenyl)-1,4,6,7-tetrahydro-pyrazolo[4,3-c]pyridin-5-yl]-ethanone]
25 | 359 nM | CC(=O)N1CCc2c(c(-c3ccc(F)cc3)nn2Cc2c(F)cccc2F)C1 [Example 6aq, 1-[1-(2,6-Difluoro-benzyl)-3-(4-fluoro-phenyl)-1,4,6,7-tetrahydro-pyrazolo[4,3-c]pyridin-5-yl]-ethanone]
26 | 552 nM | CC(=O)N1CCc2c(c(-c3ccc(F)cc3)nn2C(C)c2ccc(F)cc2)C1 (centres unmarked) [Example 6ar, 1-{3-(4-Fluoro-phenyl)-1-[1-(4-fluoro-phenyl)-ethyl]-1,4,6,7-tetrahydro-pyrazolo[4,3-c]pyridin-5-yl}-ethanone]
27 | 659 nM | CC(=O)N1CCc2c(c(-c3ccc(F)cc3)nn2Cc2ccc(C(F)(F)F)cc2)C1 [Example 6as, 1-[3-(4-Fluoro-phenyl)-1-(4-trifluoromethyl-benzyl)-1,4,6,7-tetrahydro-pyrazolo[4,3-c]pyridin-5-yl]-ethanone]
28 | 720 nM | COc1cccc(-c2nn(Cc3ccc(F)cc3F)c3c2CN(C(C)=O)CC3)c1 [Example 6at, 1-[1-(2,4-Difluoro-benzyl)-3-(3-methoxy-phenyl)-1,4,6,7-tetrahydro-pyrazolo[4,3-c]pyridin-5-yl]-ethanone]
29 | 911 nM | CC(=O)N1CCc2c(c(-c3ccc(F)cc3)nn2Cc2cccc(C(F)(F)F)c2)C1 [Example 6av, 1-[3-(4-Fluoro-phenyl)-1-(3-trifluoromethyl-benzyl)-1,4,6,7-tetrahydro-pyrazolo[4,3-c]pyridin-5-yl]-ethanone]
30 | 947 nM | CC(=O)N1CCc2c(c(-c3cccc(OC(F)(F)F)c3)nn2C(C)c2ccc(F)cc2)C1 (centres unmarked) [Example 6aw, 1-[1-[1-(4-Fluoro-phenyl)-ethyl]-3-(3-trifluoromethoxy-phenyl)-1,4,6,7-tetrahydro-pyrazolo[4,3-c]pyridin-5-yl]-ethanone]
31 | 975 nM | COc1cc(-c2nn(Cc3ccc(F)cc3F)c3c2CN(C(C)=O)CC3)ccc1F [Example 6ax, 1-[1-(2,4-Difluoro-benzyl)-3-(4-fluoro-3-methoxy-phenyl)-1,4,6,7-tetrahydro-pyrazolo[4,3-c]pyridin-5-yl]-ethanone]
32 | 172 nM | CC(=O)N1CCc2c(c(-c3cccc(C(F)(F)F)c3)nn2Cc2ccc(Cl)nc2)C1 [Example 6b, 1-[1-(6-Chloro-pyridin-3-ylmethyl)-3-(3-trifluoromethyl-phenyl)-1,4,6,7-tetrahydro-pyrazolo[4,3-c]pyridin-5-yl]-ethanone]
